Laboratory results as given in patent US10086039B2, “Lamin A, an activator of longevity/anti-aging SIRT1 protein” (THE UNIVERSITY OF HONG KONG, priority 2012, dated 2018).

Legend:
[1] = target: T1, rhSIRT1 association with NM (Homo sapiens, UniProt Q96EB6); test: Association of rhSIRT1 with insoluble NM fraction in test tube; assay type: binding; details: NM from wild-type and Zmpste24−/− cells, resveratrol 10 μM
T1 sequence (Q96EB6 1-747): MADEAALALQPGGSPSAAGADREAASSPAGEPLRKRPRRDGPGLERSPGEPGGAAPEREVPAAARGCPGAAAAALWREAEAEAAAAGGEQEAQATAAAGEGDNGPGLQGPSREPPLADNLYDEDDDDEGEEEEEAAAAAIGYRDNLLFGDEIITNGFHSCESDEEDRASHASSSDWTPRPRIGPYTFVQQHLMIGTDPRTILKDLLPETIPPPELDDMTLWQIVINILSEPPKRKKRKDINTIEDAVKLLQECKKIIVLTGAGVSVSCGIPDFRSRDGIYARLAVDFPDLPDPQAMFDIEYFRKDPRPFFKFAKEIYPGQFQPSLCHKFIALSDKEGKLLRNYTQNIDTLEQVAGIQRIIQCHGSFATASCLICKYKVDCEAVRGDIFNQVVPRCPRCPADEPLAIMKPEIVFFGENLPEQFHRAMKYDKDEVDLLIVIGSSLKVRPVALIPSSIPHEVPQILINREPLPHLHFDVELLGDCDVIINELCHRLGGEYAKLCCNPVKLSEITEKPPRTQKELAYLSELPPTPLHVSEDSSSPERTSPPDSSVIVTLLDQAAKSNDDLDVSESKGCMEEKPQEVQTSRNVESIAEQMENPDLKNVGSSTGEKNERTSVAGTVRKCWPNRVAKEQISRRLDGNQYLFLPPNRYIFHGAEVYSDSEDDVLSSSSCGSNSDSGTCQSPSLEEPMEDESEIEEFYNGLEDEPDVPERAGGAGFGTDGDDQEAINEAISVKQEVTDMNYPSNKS

[2] = target: T2, SIRT1 binding to prelamin A (Mus musculus, UniProt Q923E4); test: Prelamin A pull-down by anti-SIRT1 immunoprecipitates in BMSCs; assay type: cell-based; details: resveratrol 2 μM
T2 construct: endogenous in cells; host or cells: mouse bone marrow stromal cells (Zmpste24-/-)
T2 sequence (Q923E4 2-737 limits assumed): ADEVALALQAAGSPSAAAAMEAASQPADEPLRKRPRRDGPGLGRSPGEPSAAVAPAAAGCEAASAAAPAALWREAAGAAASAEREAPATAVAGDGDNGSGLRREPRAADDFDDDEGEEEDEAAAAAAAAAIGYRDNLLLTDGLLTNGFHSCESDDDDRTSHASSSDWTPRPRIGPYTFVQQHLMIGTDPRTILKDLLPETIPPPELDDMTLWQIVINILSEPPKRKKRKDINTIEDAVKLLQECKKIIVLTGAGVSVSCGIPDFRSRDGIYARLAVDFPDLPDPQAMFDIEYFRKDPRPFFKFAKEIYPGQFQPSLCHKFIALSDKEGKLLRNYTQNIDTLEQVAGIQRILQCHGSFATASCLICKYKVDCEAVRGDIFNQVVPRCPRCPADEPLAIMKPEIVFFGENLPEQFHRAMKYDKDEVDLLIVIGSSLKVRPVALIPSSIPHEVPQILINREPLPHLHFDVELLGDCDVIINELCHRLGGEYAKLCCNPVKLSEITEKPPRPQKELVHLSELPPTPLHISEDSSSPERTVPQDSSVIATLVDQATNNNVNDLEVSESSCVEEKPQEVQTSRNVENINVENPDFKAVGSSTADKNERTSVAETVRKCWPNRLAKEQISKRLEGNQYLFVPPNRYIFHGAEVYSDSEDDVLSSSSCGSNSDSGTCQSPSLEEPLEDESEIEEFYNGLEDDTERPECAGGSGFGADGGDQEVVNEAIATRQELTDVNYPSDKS
T2 sequence (P48678 1-662 partner limits assumed): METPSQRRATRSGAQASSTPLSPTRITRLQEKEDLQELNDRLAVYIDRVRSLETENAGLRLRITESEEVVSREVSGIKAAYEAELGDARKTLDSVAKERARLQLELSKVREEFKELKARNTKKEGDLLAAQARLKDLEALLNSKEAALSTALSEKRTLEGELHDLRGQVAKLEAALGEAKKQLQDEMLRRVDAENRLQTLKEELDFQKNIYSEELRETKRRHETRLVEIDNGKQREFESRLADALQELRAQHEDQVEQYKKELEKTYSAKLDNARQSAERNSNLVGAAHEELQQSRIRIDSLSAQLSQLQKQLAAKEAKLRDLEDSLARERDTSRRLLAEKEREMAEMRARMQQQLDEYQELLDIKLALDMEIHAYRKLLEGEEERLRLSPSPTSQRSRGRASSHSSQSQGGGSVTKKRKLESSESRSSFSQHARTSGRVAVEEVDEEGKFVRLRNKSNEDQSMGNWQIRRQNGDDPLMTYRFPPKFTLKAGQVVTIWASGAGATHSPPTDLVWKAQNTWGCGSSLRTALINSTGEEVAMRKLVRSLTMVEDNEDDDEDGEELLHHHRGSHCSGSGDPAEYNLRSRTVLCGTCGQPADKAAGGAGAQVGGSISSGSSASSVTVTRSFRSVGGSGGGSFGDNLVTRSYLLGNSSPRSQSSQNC
Protocol: (FIG. 4A) Resveratrol (10 μM) increased colony-forming capacity of Zmpste24^−/− BMSCs. Colony-forming assay was performed on freshly isolated bone marrow cells in 10 cm dishes in the presence and absence of resveratrol. (FIG. 4B) Colony number counting. […] Data represent mean±SEM, n=4. *P<0.05, RSV Vs Vehicle. (FIG. 4C) Left, level of prelamin A pull down by anti SIRT1 immunoprecipitates in BMSCs treated or untreated with resveratrol (2 μM) was determined by Immunoblotting; right, level of acetylated Foxo3a in resveratrol was assessed by Immunoblotting. (FIG. 4D) Levels of catalase and Gadd45α in SIRT1 or scramble siRNA treated Zmpste24^−/− BMSCs in the presence or absence of resveratrol (10 μM) determined by Western blotting. (FIG. 4E) Colony-forming capacity of Zmpste24^−/− BMSCs by SIRT1 or scramble knocking down in the presence or absence of resveratrol. […] Colony forming assay was done on freshly isolated cells in 6-well plates. (FIG. 4F) Quantification of (FIG. 4E). […] (FIG. 4gG Levels of H3K9ac and IR-induced-H2AX with or without ectopic SIRT1 in wild-type and Zmpste24 null BMSCs were assessed by Western blotting. (FIG. 4H) Ectopic SIRT1 increased the colony-forming capacity of Zmpste24^−/− and wild-type BMSCs. Colony-forming assay was performed on freshly isolated cells in 6 cm dishes. (FIG. 4I) Quantification of (FIG. 4H). Data represent mean±SEM, n=5. *P<0.05, SIRT1 Vs Mock. […]

Oc1ccc(C=Cc2cc(O)cc(O)c2)cc1 [resveratrol]
association of rhSIRT1 with NM [1]: enhanced the association
binding of SIRT1 to prelamin A [2]: increased the binding of SIRT1 to prelamin A
